Results reported in patent publication US5411943A, “Hepatoma treatment with somatostatin analogs” (Biomeasure, Inc., priority 1992, dated 1995).

Key:
M5123 hepatoma [1] = experiment: Subcutaneous tumor assay, M5123 hepatoma implanted s.c. in Buffalo strain rats; type: in vivo, rat; details: for Final Tumor Size Day 15 / Percent Test/Control: 500 μg analog/inj.; for Final Tumor Size Day 15: mean ± S.D.; for Percent Test/Control: day 15
Source text: (§1) The M5123 hepatoma cells, obtained from Dr. H. P. Morris at the National Cancer Institute, were induced in the Buffalo strain of rats by ingestion of N-(2-fluorenylphthalamic acid) and established in serial transplantation. Implantation of the M5123 hepatoma cells in an immunodeficient athymic mouse or Buffalo strain rat reproducibly results in a progressively growing, lethal tumor.
(§2) To determine the growth inhibitory effect of bombesin analogs on hepatoma cells, two in vivo assay systems, the subcutaneous tumor assay in the syngeneic Buffalo strain rat and the subrenal capsule assay using the immunodeficient athymic nude mouse were employed.
In the subcutaneous assay, tumor grafts are implanted subcutaneously and treatment can be initiated at any selected time after the implantation.
In this assay, 20 male Buffalo strain rats were implanted s.c., right flank, with a 2 mm^3 mince of the M5123 hepatoma in the a.m. of day zero. The animals were individually identified and then randomized 10 rats in the control and 5 rats per test group. […] Tumor sizes were determined with Vernier calipers twice weekly and size calculated as the average of two diameters (length+width/2) mm.

M5123 hepatoma [2] = experiment: Subrenal capsule assay (SRCA), M5123 rat hepatoma xenografts in athymic female mice; type: in vivo, mouse; details: s.c., b.i.d., q.d. 1-9; for Change in Tumor Size between day 0 and day 10: mean ± s.e.m.
Source text: as §1, §2
SRCA was designed as a rapid in vivo method for testing chemotherapeutic agents against tumor xenografts prepared from solid malignancies. As an antitumor screening procedure, tumors, both human and murine, can be tested as xenografts in athymic female mice. For detailed description of this assay, see Bogden, A. E. et al. A rapid screening method for testing chemotherapeutic agents against human tumor xenografts. In: Proc. Symp. Use of Athymic (Nude) Mice in Cancer Research, p. 231, Edited by Houchens et al., Gustav Fisher, N.Y. (1978).
Further, an in situ determination of tumor xenograft size at time of implantation and again at termination of the assay, permits use of the very simple parameter of change in tumor size for evaluating tumor sensitivity to the analog. Since the initial measurement provides each xenograft with its own baseline for evaluating drug effects, one can measure tumor response to drugs in terms of progression, stabilization, partial remission and complete remission, which are parameters that have clinical relevance.
In this assay, xenografts prepared from the transplantation-established M5123 hepatoma were first implanted in immunodeficient athymic female mice, followed by treatment with BIM-23014, in assays of 10-day duration. Thirty two athymic female mice were implanted under the renal capsule with 1 mm cubed grafts of the M5123 rat hepatoma on day zero. Treatment with the analog was initiated on day one at 500, 250 and 50 μg per injection, s.c., b.i.d., on a q.d. 1-9 schedule. On day 10, the mice were sacrificed, the kidney was removed and the size of the tumor was measured to determine changes in tumor size between day 0 and day 10.
More specifically, the size of the tumor was measured in situ by means of a stereoscope, which was fitted with an ocular micrometer calibrated in ocular units (OMU, 10 OMU=1 mm). For each tumor, two perpendicular diameters were measured and the difference in mean tumor diameter over the 10-day period was calculated.

[3] = Body weight change (systemic toxicity) in the subcutaneous assay; type: in vivo, rat; details: for Final Body Weight/Initial Body Weight ratio: q.d. 0-15 (control 1.15)
Method: In this assay, 20 male Buffalo strain rats were implanted s.c., right flank, with a 2 mm^3 mince of the M5123 hepatoma in the a.m. of day zero. The animals were individually identified and then randomized 10 rats in the control and 5 rats per test group. An somatostatin analog used in the invention, H-D-β-Nal-Cys-Tyr-D-Trp-Lys-Val-Cys-Thr-NH2 (code name: BIM-23014), was administered b.i.d. Monday through Friday, and as a single total daily dose on Saturday and Sunday. Tumor sizes were determined with Vernier calipers twice weekly and size calculated as the average of two diameters (length+width/2) mm.
Since neoplasms maintain autonomous growth by autocrine and paracrine growth factors, the importance of attaining therapeutic concentrations of an antigrowth factor such as BIM-23014 at the tumor site is emphasized in this study. […] Control Final Body Weight/Initial Body Weight ratio was 1.15, as compared to 1.06 for group 2 and 1.12 for group 3.

CC(C)[C@@H]1NC(=O)[C@H](CCCCN)NC(=O)[C@@H](Cc2c[nH]c3ccccc23)NC(=O)[C@H](Cc2ccc(O)cc2)NC(=O)[C@@H](NC(=O)[C@H](N)Cc2ccc3ccccc3c2)CSSC[C@@H](C(=O)N[C@H](C(N)=O)[C@@H](C)O)NC1=O [BIM-23014, H-D-β-Nal-Cys-Tyr-D-Trp-Lys-Val-Cys-Thr-NH2]
Final Tumor Size Day 15 (M5123 hepatoma [1]; s.c. infusion (perilesional) b.i.d., q.d. 0-15): 10.2 ± 5.6 mm | Percent Test/Control (M5123 hepatoma [1]; s.c. infusion b.i.d., q.d. 0-15): 62% | Final Tumor Size Day 15 (M5123 hepatoma [1]; s.c., b.i.d., q.d. 0-15 (flank opposite from tumor)): 16.8 ± 2.4 mm | Percent Test/Control (M5123 hepatoma [1]; s.c., b.i.d., q.d. 0-15): 102% | Tumor inhibitory effect (in words) (M5123 hepatoma [1]; s.c. on the flank opposite from the tumor, 500 μg/inj.): no tumor inhibitory effects | Growth of the M5123 hepatoma (in words) (M5123 hepatoma [1]; s.c. perilesional infusion, 500 μg/inj., p<0.01): significantly inhibited | % Test/Control (M5123 hepatoma [2]; 50 μg analog/inj.): 93% | Change in Tumor Size between day 0 and day 10 (M5123 hepatoma [2]; 50 μg analog/inj.): 37.00 ± 1.80 omu | Inhibition (antitumor activity) (M5123 hepatoma [2]; 50 μg): 7% | % Test/Control (M5123 hepatoma [2]; 250 μg analog/inj.): 77% | Change in Tumor Size between day 0 and day 10 (M5123 hepatoma [2]; 250 μg analog/inj.): 30.56 ± 3.61 omu | Reduction in the growth of the tumor (M5123 hepatoma [2]; 250 μg/injection): about 25% | % Test/Control (M5123 hepatoma [2]; 500 μg analog/inj.): 84% | Change in Tumor Size between day 0 and day 10 (M5123 hepatoma [2]; 500 μg analog/inj.): 33.38 ± 2.19 omu | Inhibition (antitumor activity) (M5123 hepatoma [2]; 500 μg): 16% | Systemic toxic effects from treatment as indicated by body weight loss (in words) ([3]; 500 μg/inj., b.i.d., q.d. 0-15): no evidence of systemic toxic effects | Final Body Weight/Initial Body Weight ratio ([3]; group 2: 500 μg/inj., s.c., b.i.d.): 1.06 | Final Body Weight/Initial Body Weight ratio ([3]; group 3: 500 μg/inj., s.c. infusion b.i.d.): 1.12
